Measured values from patent US10653667B2, “Drug for preventing, treating or preventing metastasis of giant cell tumor that occurs in bone or soft parts, chondrosarcoma, or osteosarcoma, local injection for arterial embolization, and artificial bone” (NIPPON CHEMIPHAR CO., LTD, priority 2013, dated 2020).
“Also recorded” adds a separate entry of the source.

Tests used:
[1] = tested on: synovial cells derived from rheumatism patients; details: cited from earlier work
[2] = tested on: GCTB cultured cells (case 1, case 2; GCT-1, GCT-2); assay: Suppression of cell proliferation of GCTB cultured cells (Cell Counting Kit-8, WST assay); format: cell-based, human; details: drug at various concentrations, CCK-8 24 hours after addition
Experimental: Tissue Int., 75:71-77), repeatedly subcultured until there were only spindle-shaped cells, which state was gradually attained from the state that there were also multinucleated giant cells observed in an early stage, and then used for the following analysis. […] Zaltoprofen was added as a solution in DMSO (dimethyl sulfoxide) prepared at a concentration 1000 times higher than the final concentration, and the solution was added in a volume of 0.1% of the volume of the medium. The same shall apply to the other drugs used in the following examples. […]

[3] = tested on: cultured cells of giant cell tumor of tendon sheath (GCTT); assay: Suppression of cell proliferation of GCTT cultured cells (CCK-8); format: cell-based, human; details: drug at various concentrations, CCK-8 24 hours after addition
[4] = tested on: cultured cells of pigmented villonodular synovitis (PVNS); assay: Suppression of cell proliferation of PVNS cultured cells (CCK-8); format: cell-based, human; details: for suppression of cell proliferation (absorbance at 450 nm): PVNS cells, drug at various concentrations, CCK-8 24 hours after addition
H-EMC-SS cells = assay: Suppression of cell proliferation of chondrosarcoma cell line H-EMC-SS (CCK-8); format: cell-based, human; details: drug at various concentrations
Excerpt: The H-EMC-SS cells were obtained from the Riken BioResource Center.
(§1) The H-EMC-SS cells were obtained from the Riken BioResource Center. As the SW1353 cells, those obtained from ATCC were used.

SW1353 cells [5] = assay: Suppression of cell proliferation of chondrosarcoma cell line SW1353 (CCK-8); format: cell-based, human; details: drug at various concentrations
Excerpt: as §1

SW1353 cells [6] = assay: Cell migration of human chondrosarcoma cell line SW1353; format: cell-based; details: 72 hours
Experimental: The analysis of cell migration was performed by using a 6-well plate of TPP according to the method described in Takeuchi A, et al., Cancer Science, 104:740-749, 2013 (Low molecular weight heparin suppresses receptor for advanced glycation end products-mediated expression of malignant phenotype in human fibrosarcoma cells). Cells of the human chondrosarcoma cell line, SW1353, were cultured in the same manner as that of Example 1 until they became sub-confluent, and the cells were delaminated in a width of 1 mm using a micropipette tip (200 μl). […] Then, area of the cells migrated to the region where the cells were delaminated was measured by using Image J software (http://rsb.info.nih.gov/ij/index.html) (FIGS. 73 and 74).

SW1353 cells [7] = assay: Cell invasion of SW1353 cells (Matrigel Invasion Chamber); format: cell-based, human; details: all set concentrations, concentration-dependent; 24 hours
Excerpt: For the analysis of cell invasion, Matrigel™ Invasion Chamber (BD Bioscience, catalog number 354480), which uses Matrigel as the matrix, was used. […] FIGS. 76 and 77 show microphotographs of invaded cells fixed by immersion into a 4% paraformaldehyde solution, and stained with hematoxylin (magnification is 200 times). From the microphotographs of FIGS. 76 and 77, the patterns of the invaded cells can be understood.

Solubility in DMSO = format: physicochemical; details: limited highest test concentration (lornoxicam 80 μm, ampiroxicam 20 μm)
colon cancer = details: cited from earlier work
[8] = tested on: OST cells, human bone sarcoma-derived cultured cells; details: transdermally administered; after four weeks; cited from earlier work
PVNS = details: in vitro; cited from earlier work
SW1353 cells [9] = assay: Proliferation of SW1353 cells cultured beforehand with PPARγ siRNA or control siRNA; format: cell-based, human; details: 100 μM rosiglitazone; 24 hours
[10] = all set concentrations, concentration-dependent

SMILES | activation of PPARγ [1] | apoptosis [1] | suppression of proliferation of the cells [1] | suppression of cell proliferation (live cell count, absorbance at 450 nm) [2] | suppression of cell proliferation (absorbance at 450 nm) [3] | suppression of cell proliferation (absorbance at 450 nm) [4] | suppression of cell proliferation (absorbance at 450 nm) (H-EMC-SS cells) | suppression of cell proliferation (absorbance at 450 nm) (SW1353 cells [5]) | further results
CS(=O)(=O)Nc1ccc([N+](=O)[O-])cc1OC1CCCCC1 [NS-398] | did not activate PPARγ | did not cause apoptosis | suppressed proliferation | – | – | – | – | – | –
COc1ccc2c(c1)c(CC(=O)OCC(=O)O)c(C)n2C(=O)c1ccc(Cl)cc1 [acemetacine, acemetacin] | – | – | – | suppressed proliferation | suppressed proliferation | suppressed proliferation | suppressed proliferation | suppressed proliferation | –
CC(=O)Nc1ccc(O)cc1 [acetaminophen] | did not cause activation of PPARγ | did not cause | did not cause | suppressed in a drug concentration-dependent manner; also recorded: suppressed proliferation | suppressed proliferation | suppressed proliferation | suppressed proliferation | suppressed proliferation | suppression of cell migration of SW1353 cells (SW1353 cells [6]; [10]): suppressed the cell migration; suppression of cell invasion of SW1353 cells (SW1353 cells [7]): suppressed the cell invasion
CCOC(=O)OC(C)OC1=C(C(=O)Nc2ccccn2)N(C)S(=O)(=O)c2ccccc21 (stereo not shown) [ampiroxicam] | – | – | – | suppressed proliferation | suppressed proliferation | suppressed proliferation | suppressed proliferation | suppressed proliferation | solubility in DMSO (dimethyl sulfoxide) (Solubility in DMSO): low solubility
Cc1ccc(-c2cc(C(F)(F)F)nn2-c2ccc(S(N)(=O)=O)cc2)cc1 [celecoxib] | – | – | – | – | – | – | – | – | suppression of cell migration of SW1353 cells (SW1353 cells [6]; 75 μM celecoxib): higher than 80%
O=C(O)Cc1ccccc1Nc1c(Cl)cccc1Cl [diclofenac] | activated PPARγ | caused apoptosis | suppress proliferation | suppressed in a drug concentration-dependent manner; also recorded: suppressed proliferation | suppressed proliferation | suppressed proliferation | suppressed proliferation | suppressed proliferation | suppression of cell migration of SW1353 cells (SW1353 cells [6]; [10]): suppressed the cell migration; suppression of cell invasion of SW1353 cells (SW1353 cells [7]): suppressed the cell invasion; occurrence of colon cancer (colon cancer; induced by repetitive administration of 1,2-dimethylhydrazine dihydrochloride to rats): prevented occurrence of colon cancer; amount of NF-κB protein in the large intestine (colon cancer; rats): reduced amount of NF-κB protein; amount of the PPARγ protein (colon cancer; rats): increased amount of the PPARγ protein
CCc1cccc2c3c([nH]c12)C(CC)(CC(=O)O)OCC3 (stereo not shown) [etodolac] | – | – | – | suppressed proliferation | suppressed proliferation | suppressed proliferation | suppressed proliferation | suppressed proliferation | –
COc1ccc2c(c1)c(CC(=O)O)c(C)n2C(=O)c1ccc(Cl)cc1 [indomethacin] | activated PPARγ | caused apoptosis | suppress proliferation | suppressed in a drug concentration-dependent manner; also recorded: suppressed proliferation | suppressed proliferation | suppressed proliferation | suppressed proliferation | suppressed proliferation | suppression of cell migration of SW1353 cells (SW1353 cells [6]; [10]): suppressed the cell migration; suppression of cell invasion of SW1353 cells (SW1353 cells [7]): suppressed the cell invasion
CC(C(=O)O)c1cccc(C(=O)c2ccccc2)c1 (stereo not shown) [ketoprofen] | did not cause activation of PPARγ | did not cause | did not cause | – | – | – | – | – | tumor weight relative to placebo group [8]: 48%
CN1C(C(=O)Nc2ccccn2)=C(O)c2sc(Cl)cc2S1(=O)=O [lornoxicam] | – | – | – | suppressed proliferation | suppressed proliferation | suppressed proliferation | suppressed proliferation | suppressed proliferation | solubility in DMSO (dimethyl sulfoxide) (Solubility in DMSO): low solubility
NC(=O)c1ncn([C@@H]2O[C@H](CO)[C@@H](O)[C@H]2O)c1O [mizoribine] | – | – | – | – | – | – | – | – | inhibition of proliferation of PVNS (PVNS): slightly inhibited proliferation
COc1ccc(-c2noc(CC(=O)O)c2-c2ccc(OC)cc2)cc1 [mofezolac] | – | – | – | suppressed proliferation | suppressed proliferation | suppressed proliferation | suppressed proliferation | suppressed proliferation | –
COc1ccc2cc([C@H](C)C(=O)O)ccc2c1 [naproxen] | – | – | – | suppressed proliferation | suppressed proliferation | suppressed proliferation | suppressed proliferation | suppressed proliferation | –
O=C(O)CCc1nc(-c2ccccc2)c(-c2ccccc2)o1 [oxaprozin] | activated PPARγ | caused apoptosis | suppress proliferation | suppressed proliferation | suppressed proliferation | suppressed proliferation | suppressed proliferation | suppressed proliferation | suppression of the proliferation at the highest measured concentration ([4]; oxaprozin 200 μm, cells of pigmented villonodular synovitis as printed, 400 μm or higher could not be measured): only slight suppression
CN(CCOc1ccc(CC2SC(=O)NC2=O)cc1)c1ccccn1 (stereo not shown) [rosiglitazone] | – | – | – | – | – | – | – | – | suppression of proliferation of SW1353 cells (SW1353 cells [9]): about 61%
Cc1c(C)c2c(c(C)c1O)CCC(C)(COc1ccc(CC3SC(=O)NC3=O)cc1)O2 (stereo not shown) [troglitazone] | – | – | – | – | – | – | – | – | suppression of cell migration of SW1353 cells (SW1353 cells [6]; 100 μM troglitazone): about 65%
